# Measurements published in article PMC11391043, “Revealing the pH-dependent conformational changes in sol g 2.1 protein and potential ligands binding” (Scientific Reports, 2024).
# How the values were obtained:
# [1] = target: T1, rSol g 2.1 protein (Solenopsis geminata, UniProt A0A9E7V488); test: Fluorescence competitive binding assay (FCBA), 1-NPN displacement; details: 2 µM rSol g 2.1, 5 µM 1-NPN
# T1 sequence (A0A9E7V488 1-119): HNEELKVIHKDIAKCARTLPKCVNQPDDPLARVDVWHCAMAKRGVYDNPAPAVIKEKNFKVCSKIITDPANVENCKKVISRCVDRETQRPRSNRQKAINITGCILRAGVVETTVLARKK
# Text: (§1) The FCBA is that a fluorescence probe, N-phenyl-1-naphthylamine (1-NPN, purity > 98%, Sigma Aldrich) binds with the hydrophobic binding cavity of the protein, especially with Tryptophan amino acid (Trp). Then Trp will transfer energy to 1-NPN-probe, leading to an increased emission wavelength at approximately 400 nm with dose-dependent. Besides, when the aliquot of a ligand competitor, the ligand will be competed for 1-NPN-probe, resulting in a decreased emission wavelength at 400 nm. In this study, we performed the FCBA to determine the binding activity of Sol g 2.1 protein and the potential ligands. To examine affinity binding, a stock solution of 5 mM 1-NPN in methanol (HPLC grade) was gradually added to a solution containing 2 µM rSol g 2.1 in 50 mM Tris–HCl buffer (pH 5.5 and pH 7.4) with 1% tween 20. Final concentrations of 0, 0.5, 1, 2, 4, 6, 8, 10, and 12 µM of 1-NPN were achieved, with methanol serving as a negative control. Fluorescence intensity was measured using a spectrofluorometer (FluoroMax + SpectroFluorometer, Horiba Scientific) with excitation at 337 nm and emission scanning from 370 to 490 nm, at room temperature, in triplicate. The equilibrium dissociation (Kd) value was determined by plotting the fluorescence intensity at 400 nm against each 1-NPN concentration. The data were fitted to a one-site-specific binding model as follows: Y = Bmax*X/(Kd + X), where Y, X, Bmax, and Kd are the fluorescence intensity (counts/second), fluorescence probe concentration (μM), the maximum specific binding in the same units as Y, and the equilibrium dissociation constant in the same units as X.
# The potential ligands, including (E)-β-Farnesene, α-Caryophyllene, and 1-Octen-3-ol (all, Tokyo Chemical Industry (TCI), Tokyo, Japan) were used as competitors in the FCBA. For this, a mixture of 2 µM rSol g 2.1 protein and 5 µM 1-NPN in 50 mM Tris–HCl buffer (pH 5.5 and pH 7.4) with 1% tween 20 was titrated with each ligand (5 mM stock in methanol) to final concentrations of 0, 2, 4, 6, 8, 10, 12, 14, 20, 24, 28, and 32 µM. The fluorescence intensity at 400 nm for each concentration was fitted to the One Site-Fit Ki model to determine the dissociation constant of competitor ligands (Ki) as follows: logEC50 = log (10^logKi*(1 + RadioligandNM/HotKdNM))[22],[57]. Here, RadioligandNM represents the concentration of fixed 1-NPN (nM), HotKdNM represents Kd (nM), and Ki represents the equilibrium dissociation constant (Molar). All experiments were conducted in triplicate and analyzed using GraphPad Prism 9 software (San Diego, CA, USA)[22].
# [2] = target: T1, rSol g 2.1 protein; test: Fluorescence binding assay of 1-NPN probe with rSol g 2.1 (Scatchard plots); details: 50 mM Tris-HCl, ± SEM, triplicate
# Text: as §1, with “To examine affinity binding, a stock solution of 5 mM 1-NPN in methanol (HPLC grade) was gradually added to a solution containing 2 µM rSol g 2.1 in 50 mM Tris–HCl buffer (pH 5.5 and pH 7.4) with 1% tween 20. Final concentrations of 0, 0.5, 1, 2, 4, 6, 8, 10, and 12 µM of 1-NPN were achieved, with methanol serving as a negative control.” left out
Structure (SMILES),Ki ([1]; pH 5.5) [µM],Ki ([1]; pH 7.4) [µM],Kd ([2]; pH 5.5) [µM],Kd ([2]; pH 7.4) [µM]
C=CC(=C)CC/C=C(\C)CCC=C(C)C [(E)-β-Farnesene],1.24,0.72,–,–
"c1ccc(Nc2cccc3ccccc23)cc1 [1-NPN, N-phenyl-1-naphthylamine]",–,–,4.83 ± 0.03,2.33 ± 0.05
C=CC(O)CCCCC (centres unmarked) [1-Octen-3-ol],5.61,2,–,–
C/C1=C\CC/C(C)=C/CC(C)(C)/C=C/C1 [α-Caryophyllene],16,1.06,–,–
